Laboratory results from ChEMBL document CHEMBL3228010, “Potential antitumor agents. 29. Quantitative structure-activity relationships for the antileukemic bisquaternary ammonium heterocycles” (J Med Chem, 1979).

Legend:
[1] = test system: L1210; experiment: Antitumor activity against mouse L1210 cells […] in ip dosed C3H X DBA2 F1 hybrid mouse on day 0 and dosed once daily on days 1 to 5 assessed as increase in life span relative to control; assay type: functional
[2] = Lipophilic-hydrophilic balance, Rm of the compound by partition chromatography; assay type: physicochemical
[3] = test system: L1210; experiment: Antitumor activity against mouse L1210 cells […] in ip dosed C3H X DBA2 F1 hybrid mouse on day 0 and dosed at LD10 level once daily on days 1 to 5 assessed as increase in life span relative to control; assay type: functional
[4] = test system: Mus musculus; experiment: Toxicity in ip dosed C3H X DBA2 F1 hybrid mouse […] with mouse L1210 cells on day 0 and dosed once daily on days 1 to 5 measured after 50 days; assay type: organism-based; conditions: in vivo, 1200 h

| SMILES | D40 [1] [mg/kg] | Rm [2] | log(ILSmax) [3] | LD10 [4] [mg/kg] |
| --- | --- | --- | --- | --- |
| CCC[n+]1cccc(NC(=O)c2ccc(NC(=O)/C=C/c3ccc(C(=O)Nc4ccc(C(=O)Nc5ccc[n+](CCC)c5)cc4)cc3)cc2)c1.Cc1ccc(S(=O)(=O)[O-])cc1.Cc1ccc(S(=O)(=O)[O-])cc1 | 11.5 | -0.2 | 1.95 | 46 |
| CCCCC[n+]1cccc2cc(NC(=O)COc3ccc(C(=O)Nc4ccc5c(ccc[n+]5CCCCC)c4)cc3)ccc21.Cc1ccc(S(=O)(=O)[O-])cc1.Cc1ccc(S(=O)(=O)[O-])cc1 | 100 | 0.78 | 1.53 | 150 |
| CCC[n+]1cccc2cc(NC(=O)c3ccc(-c4ccc(-c5ccc(-c6ccc(C(=O)Nc7ccc8c(ccc[n+]8CCC)c7)cc6)cc5)cc4)cc3)ccc21.Cc1ccc(S(=O)(=O)[O-])cc1.Cc1ccc(S(=O)(=O)[O-])cc1 | 17 | 0.49 | 2.01 | 45 |
| CC[n+]1cc(-c2ccc(NC(=O)/C=C/c3ccc(C(=O)Nc4ccc(-c5c[n+](CC)c(N)nc5N)cc4)cc3)cc2)c(N)nc1N.Cc1ccc(S(=O)(=O)[O-])cc1.Cc1ccc(S(=O)(=O)[O-])cc1 | 5.1 | -0.35 | 2.23 | 27 |
| CC[n+]1cccc(NC(=O)c2ccc(NC(=O)C34CCC(C(=O)Nc5ccc(C(=O)Nc6ccc[n+](CC)c6)cc5)(CC3)CC4)cc2)c1.Cc1ccc(S(=O)(=O)[O-])cc1.Cc1ccc(S(=O)(=O)[O-])cc1 | 18 | 0.59 | 1.65 | 27 |
| CCC[n+]1ccc(Nc2ccc(NC(=O)c3ccc(Nc4cc[n+](CCC)c5ccc(N)cc45)cc3)cc2N)cc1.[I-].[I-] | 3.6 | 0.41 | 1.95 | 10 |
| C[n+]1cccc2cc(NC(=O)c3ccc(-c4ccc(-c5ccc(-c6ccc(C(=O)Nc7ccc8c(ccc[n+]8C)c7)cc6)cc5)cc4)cc3)ccc21.Cc1ccc(S(=O)(=O)[O-])cc1.Cc1ccc(S(=O)(=O)[O-])cc1 | 10 | -0.52 | 1.9 | 65 |
| CC[n+]1cccc2ccc(NC(=O)c3ccc(-c4ccc(-c5ccc(-c6ccc(C(=O)Nc7ccc8ccc[n+](CC)c8c7)cc6)cc5)cc4)cc3)cc21.Cc1ccc(S(=O)(=O)[O-])cc1.Cc1ccc(S(=O)(=O)[O-])cc1 | 20.4 | 0.08 | 2.02 | 106 |
| CCC[n+]1cccc2cc(NC(=O)c3ccc(C(=O)Nc4ccc5c(ccc[n+]5CCC)c4)c(N)c3)ccc21.Cc1ccc(S(=O)(=O)[O-])cc1.Cc1ccc(S(=O)(=O)[O-])cc1 | 3.9 | 0.25 | 1.92 | 10 |
| CC[n+]1cccc(NC(=O)c2ccc(NC(=O)c3ccc(C(=O)Nc4ccc(C(=O)Nc5ccc[n+](CC)c5)c(N)c4)cc3)cc2N)c1.Cc1ccc(S(=O)(=O)[O-])cc1.Cc1ccc(S(=O)(=O)[O-])cc1 | 3.2 | -0.65 | 2.18 | 10 |
| CCC[n+]1ccc(Nc2ccc(NC(=O)c3ccc(Nc4cc[n+](CCC)c5ccccc45)cc3N)cc2)cc1.[I-].[I-] | 24 | 0.71 | 1.6 | 24 |
| CC[n+]1cc(-c2ccc(NC(=O)c3ccc(Nc4cc[n+](CC)c5ccccc45)cc3)cc2)c(N)nc1N.[I-].[I-] | 3.3 | 0.45 | 2.11 | 32 |
| CCCC[n+]1cccc(NC(=O)c2ccc(NC(=O)c3ccc(C(=O)Nc4ccc5c(ccc[n+]5CCCC)c4)cc3)cc2)c1.Cc1ccc(S(=O)(=O)[O-])cc1.Cc1ccc(S(=O)(=O)[O-])cc1 | 32 | 0.85 | 1.6 | 32 |
| CCC[n+]1cc(-c2ccc(NC(=O)c3ccc(C(=O)Nc4ccc(-c5c[n+](CCC)c(N)nc5N)cc4)cc3)cc2)c(N)nc1N.Cc1ccc(S(=O)(=O)[O-])cc1.Cc1ccc(S(=O)(=O)[O-])cc1 | 7 | -0.08 | 2.15 | 50 |
| C[n+]1cc(-c2ccc(NC(=O)c3ccc(C(=O)Nc4ccc(-c5c[n+](C)c(N)nc5N)cc4)cc3)cc2)c(N)nc1N.Cc1ccc(S(=O)(=O)[O-])cc1.Cc1ccc(S(=O)(=O)[O-])cc1 | 1.5 | -0.42 | 2.22 | 12 |
| CC[n+]1cccc(NC(=O)c2ccc(NC(=O)c3cccc(C(=O)Nc4ccc(C(=O)Nc5ccc[n+](CC)c5)cc4)c3)cc2)c1.Cc1ccc(S(=O)(=O)[O-])cc1.Cc1ccc(S(=O)(=O)[O-])cc1 | 12 | 0.51 | 1.6 | 12 |
| CC[n+]1ccc(Nc2ccc(C(=O)Nc3ccc(/C(C)=N/NC(=N)N)cc3)c(N)c2)c2cc(N)ccc21.Cc1ccc(S(=O)(=O)O)cc1.Cc1ccc(S(=O)(=O)[O-])cc1 | 6 | -0.2 | 2.32 | 50 |
| CCCC[n+]1cccc2cc(NC(=O)c3ccc(NC(=O)c4ccc(C(=O)Nc5ccc6c(ccc[n+]6CCCC)c5)cc4)cc3)ccc21.Cc1ccc(S(=O)(=O)[O-])cc1.Cc1ccc(S(=O)(=O)[O-])cc1 | 41 | 0.26 | 1.91 | 100 |
| CC[n+]1ccc(Nc2ccc(C(=O)Nc3ccc(Nc4cc[n+](CC)c5ccc(N)cc45)cc3)cc2)cc1.[I-].[I-] | 0.7 | 0.19 | 2.23 | 9 |
| CCC[n+]1cccc2cc(NC(=O)c3ccc(C(=O)Nc4ccc(NC(=O)c5ccc6c(ccc[n+]6CCC)c5)cc4)cc3)ccc21.Cc1ccc(S(=O)(=O)[O-])cc1.Cc1ccc(S(=O)(=O)[O-])cc1 | 60 | 0 | 2.08 | 80 |
| CC[n+]1cccc(NC(=O)c2ccc(NC(=O)c3ccc(C(=O)Nc4ccc(C(=O)Nc5ccc[n+](CC)c5)cc4)c(C)c3)cc2)c1.Cc1ccc(S(=O)(=O)[O-])cc1.Cc1ccc(S(=O)(=O)[O-])cc1 | 9.6 | 0.38 | 1.85 | 26 |
| CCC[n+]1cccc2cc(NC(=O)c3ccc(NC(=O)c4ccc(C(=O)Nc5ccc6c(ccc[n+]6CCC)c5)cc4)cc3)ccc21.Cc1ccc(S(=O)(=O)[O-])cc1.Cc1ccc(S(=O)(=O)[O-])cc1 | 38 | -0.21 | 1.92 | 95 |
| C[n+]1cccc(NC(=O)c2ccc(NC(=O)c3ccc(C(=O)Nc4ccc(C(=O)Nc5ccc[n+](C)c5)cc4)cc3)cc2)c1.Cc1ccc(S(=O)(=O)[O-])cc1.Cc1ccc(S(=O)(=O)[O-])cc1 | 5.9 | -0.74 | 2.13 | 56 |
